Results on one molecule are retold here after patent US20230026577A1, “Ophthalmic Pharmaceutical Compositions” (Vanda Pharmaceuticals Inc., priority 2019, published 2023).

Data set [1] in a line: Solubility of the compound of Formula I in various materials (HPLC with UV detector). In kind it is physicochemical. Here is the method: The solubility of the compound of Formula I in various materials is determined.
A short description of data set [2]: Forced degradation studies of the compound of Formula I. Type of data set: physicochemical. From the text: The formation of the compound of Formula II is slowed and/or eliminated by inclusion of an "antioxidant system," as described herein, in the novel ophthalmic solution compositions described herein.

Some results are limits rather than exact numbers.

What is called solubility is the dissolved amount per volume that the medium holds. Turning to `CNc1nc(Nc2ccccc2)nc(OCC(F)(F)C(F)F)n1` [Formula I, N^2-methyl-N^4-phenyl-6-(2,2,3,3-tetrafluoropropoxy)-1,3,5-triazine-2,4-diamine], the solubility is 10 µg/mL in data set [1] (0.2% poloxamer in water, aqueous with cosolvent or surfactant or cyclodextrin); 70 µg/mL in data set [1] (0.5% polyoxyl 40 hydrogenated castor oil in water, aqueous with cosolvent or surfactant or cyclodextrin); 100 µg/mL in data set [1] (1% polysorbate-80 in water, aqueous with cosolvent or surfactant or cyclodextrin); 10 µg/mL in data set [1] (1.4% polyvinyl alcohol in water, aqueous with cosolvent or surfactant or cyclodextrin, 1.4% Poly Vinyl Alcohol in water); 480 µg/mL in data set [1] (5% polyoxyl 35 castor oil in water, aqueous with cosolvent or surfactant or cyclodextrin); 620 µg/mL in data set [1] (7% polyoxyl 40 stearate in water, aqueous with cosolvent or surfactant or cyclodextrin). Further, the solubility was 1090 µg/mL in data set [1] (castor oil, oil or lipid); 100 µg/mL in data set [1] (glycerine, organic solvent or mixture); 40 µg/mL in data set [1] (mineral oil, oil or lipid); 14500 µg/mL in data set [1] (polyethylene glycol 400 (PEG-400), organic solvent or mixture); 4960 µg/mL in data set [1] (propylene glycol (PG), organic solvent or mixture); less than 10 µg/mL in data set [1] (purified water, water). Also, in data set [2], the “Formation of the compound of Formula II” value was “not formed”.
